According to patent US4398029A, “Quinoline carboxylic acid derivatives and process for the preparation” (Kyorin Seiyaku Kabushiki Kaisha, priority 1981, dated 1983):
Converted amounts (≈) assume the structure as drawn. Where a name gives a salt, the structure may show the parent alone. Read-outs that look alike come from different tables or passages of the source.

Key:
[1] = system: E. coli ATCC 10536; assay: Antibacterial activity (MIC), standard agar dilution streak method; type: cell-based, Escherichia coli; conditions: for MIC: Escherichia coli, ATCC10536, read-out: Minimum inhibitory concentration
Procedure: (§1) The antibacterial activities of the compounds of the present invention were assayed by the standard agar dilution streak method against Gram-positive and Gram-negative bacteria [Chemotherapy, 22, 1126 (1974)].

[2] = system: P. mirabilis IID 994; assay: as above; type: cell-based; conditions: Proteus mirabilis, IID994; P. mirabilis IID 994; read-out: Minimum inhibitory concentration
Procedure: as §1

[3] = system: Citrobacter freundii IID 976; assay: as above; type: cell-based; conditions: for MIC: read-out: Minimum inhibitory concentration
Procedure: as §1

[4] = system: Escherichia coli NIHJ JC-2; assay: as above; type: cell-based; conditions: for MIC: read-out: Minimum inhibitory concentration
Procedure: as §1

[5] = system: P. morganii IID 602; assay: as above; type: cell-based; conditions: for MIC: Morganella morganii, IID602, P. morganii IID 602, read-out: Minimum inhibitory concentration
Procedure: as §1

[6] = system: Pseudomonas aeruginosa V-1; assay: as above; type: cell-based; conditions: read-out: Minimum inhibitory concentration
Procedure: as §1

[7] = system: Enterobacter cloacae IID 977; assay: as above; type: cell-based; conditions: for MIC: read-out: Minimum inhibitory concentration
Procedure: as §1

[8] = system: Serratia marcescens IID 618; assay: as above; type: cell-based; conditions: for MIC: read-out: Minimum inhibitory concentration
Procedure: as §1

[9] = system: Klebsiella pneumoniae IFO 3512; assay: as above; type: cell-based; conditions: for MIC: read-out: Minimum inhibitory concentration
Procedure: as §1

[10] = system: Bacillus subtilis PCI 219; assay: as above; type: cell-based; conditions: PCI219; for MIC: Bacillus subtilis PCI 219, read-out: Minimum inhibitory concentration
Procedure: as §1

[11] = system: Acinetobacter anitratus IID 876; assay: as above; type: cell-based; conditions: for MIC: Acinetobacter calcoaceticus, IID876, read-out: Minimum inhibitory concentration
Procedure: as §1

[12] = system: Yersinia enterocolitica IID 981; assay: as above; type: cell-based; conditions: for MIC: read-out: Minimum inhibitory concentration
Procedure: as §1

[13] = system: Alcaligenes faecalis 0104002; assay: as above; type: cell-based; conditions: for MIC: read-out: Minimum inhibitory concentration
Procedure: as §1

[14] = system: Salmonella enteritidis IID 604; assay: as above; type: cell-based; conditions: Salmonella enteritidis IID 604; for MIC: Salmonella enterica, read-out: Minimum inhibitory concentration
Procedure: as §1

[15] = system: Staphylococcus aureus 209 p; assay: as above; type: cell-based; conditions: Staphylococcus aureus 209 p; read-out: Minimum inhibitory concentration
Procedure: as §1

[16] = system: S. epidermidis IID 866; assay: as above; type: cell-based; conditions: for MIC: Staphylococcus epidermidis, IID866, read-out: Minimum inhibitory concentration
Procedure: as §1

[17] = system: Proteus vulgaris 3167; assay: as above; type: cell-based; conditions: for MIC: read-out: Minimum inhibitory concentration
Procedure: as §1

[18] = system: S. aureus Terajima; assay: as above; type: cell-based, Staphylococcus aureus; conditions: S. aureus Terajima; for MIC: Staphylococcus aureus, read-out: Minimum inhibitory concentration
Procedure: as §1

[19] = system: Shigella sonnei IID 969; assay: microbe, parasite or virus in culture; type: cell-based; conditions: for MIC: Shigella sonnei, IID969, Shigella sonnei IID 969, read-out: Minimum inhibitory concentration
Procedure: as §1

[20] = system: P. aeruginosa IFO 12689; assay: Antibacterial activity (MIC), standard agar dilution streak method; type: cell-based, Pseudomonas aeruginosa; conditions: for MIC: Pseudomonas aeruginosa, IFO12689, P. aeruginosa IFO 12689, read-out: Minimum inhibitory concentration
Procedure: as §1

[21] = IID976, Citrobacter freundii IID 976
[22] = NIHJJC2, Escherichia coli NIHJ JC-2
[23] = Pseudomonas aeruginosa, V1, Pseudomonas aeruginosa V-1
[24] = IID977, Enterobacter cloacae IID 977
[25] = IID618, Serratia marcescens IID 618
[26] = IFO3512, Klebsiella pneumoniae IFO 3512
[27] = IID981, Yersinia enterocolitica IID 981
[28] = Citrobacter freundii, IID976, Citrobacter freundii IID 976
[29] = Escherichia coli, NIHJJC2, Escherichia coli NIHJ JC-2
[30] = Serratia marcescens, IID618, Serratia marcescens IID 618
[31] = Klebsiella pneumoniae, IFO3512, Klebsiella pneumoniae IFO 3512
[32] = Yersinia enterocolitica, IID981, Yersinia enterocolitica IID 981
[33] = Alcaligenes faecalis, 0104002, Alcaligenes faecalis 0104002
[34] = Proteus vulgaris, 3167, Proteus vulgaris 3167

Structure (SMILES) | MIC [1] [µg/mL] | MIC [2] [µg/mL] | MIC [3, 21] [µg/mL] | MIC [4, 22] [µg/mL] | MIC [5] [µg/mL] | MIC [6, 23] [µg/mL] | MIC [7, 24] [µg/mL] | MIC [8, 25] [µg/mL] | MIC [9, 26] [µg/mL] | MIC [10] [µg/mL] | MIC [11] [µg/mL] | MIC [12, 27] [µg/mL] | MIC ([13]; Alcaligenes faecalis 0104002) [µg/mL] | MIC [14] [µg/mL] | MIC [15] [µg/mL] | MIC [16] [µg/mL] | MIC [18] [µg/mL] | MIC [19] [µg/mL] | MIC [20] [µg/mL] | MIC ([6]; V1, Pseudomonas aeruginosa V-1) [µg/mL] | also measured
Cl.O=C(O)c1cn(CCF)c2c(F)c(N3CCNCC3)c(F)cc2c1=O [Example 4, 6,8-Difluoro-1-(2-fluoroethyl)-1,4-dihydro-4-oxo-7-(1-piperazinyl)quinoline-3-carboxylic acid hydrochloride] | 0.1 | ≤ 0.05 | ≤ 0.05 | ≤ 0.05 | 0.2 | 6.25 | ≤ 0.05 | 0.39 | ≤ 0.05 | 0.39 | 3.13 | 0.05 | 3.13 | 0.05 | 3.13 | 1.56 | 3.13 | ≤ 0.05 | 1.56 | – | MIC ([17]; Proteus vulgaris 3167): ≤ 0.05 µg/mL
CCn1cc(C(=O)O)c(=O)c2cc(F)c(N3CCC(O)CC3)c(F)c21 [Example 16, 1-Ethyl-6,8-difluoro-1,4-dihydro-7-(4-hydroxy-1-piperidinyl)-4-oxoquinoline-3-carboxylic acid silver salt] | – | 0.39 | – | – | – | – | – | – | – | – | – | – | – | – | 0.2 | – | – | – | – | 3.13 | Minimum inhibitory concentration [1]: 0.78 µg/mL; Minimum inhibitory concentration ([3]; Citrobacter freundii IID 976): 1.56 µg/mL; Minimum inhibitory concentration ([4]; Escherichia coli NIHJ JC-2): 0.78 µg/mL; Minimum inhibitory concentration ([5]; P. morganii IID 602): 1.56 µg/mL; Minimum inhibitory concentration ([7]; Enterobacter cloacae IID 977): 3.13 µg/mL; Minimum inhibitory concentration ([8]; Serratia marcescens IID 618): 3.13 µg/mL; Minimum inhibitory concentration ([9]; Klebsiella pneumoniae IFO 3512): 0.10 µg/mL; Minimum inhibitory concentration ([10]; Bacillus subtilis): ≤ 0.05 µg/mL; Minimum inhibitory concentration [11]: 1.56 µg/mL; Minimum inhibitory concentration ([12]; Yersinia enterocolitica IID 981): 1.56 µg/mL; Minimum inhibitory concentration ([13]; Alcaligenes faecalis 0104002): 3.13 µg/mL; Minimum inhibitory concentration [14]: 1.56 µg/mL; Minimum inhibitory concentration [16]: 0.39 µg/mL; Minimum inhibitory concentration ([17]; Proteus vulgaris 3167): 0.10 µg/mL; Minimum inhibitory concentration [18]: 0.39 µg/mL; Minimum inhibitory concentration ([19]; Shigella sonnei IID 969): 0.39 µg/mL; Minimum inhibitory concentration ([20]; P. aeruginosa IFO 12689): 25 µg/mL
CCn1cc(C(=O)O)c(=O)c2cc(F)c(N3CCN(CCO)CC3)c(F)c21 [Example 8, 1-Ethyl-6,8-difluoro-1,4-dihydro-7-[4-(2-hydroxyethyl)-1-piperazinyl]-4-oxoquinoline-3-carboxylic acid] | 0.2 (≈ 0.524 µM) | 0.2 (≈ 0.524 µM) | – | – | 0.78 (≈ 2.05 µM) | – | – | – | – | 0.1 (≈ 0.262 µM) | 1.56 (≈ 4.09 µM) | – | – | 0.78 (≈ 2.05 µM) | 0.78 (≈ 2.05 µM) | 0.78 (≈ 2.05 µM) | 0.78 (≈ 2.05 µM) | 0.1 (≈ 0.262 µM) | 12.5 (≈ 32.8 µM) | 12.5 (≈ 32.8 µM) | MIC [3, 28]: 0.39 µg/mL (≈ 1.02 µM); MIC [4, 29]: ≤ 0.05 µg/mL; MIC ([7]; Enterobacter cloacae, IID977, Enterobacter cloacae IID 977): 0.39 µg/mL (≈ 1.02 µM); MIC [8, 30]: 0.78 µg/mL (≈ 2.05 µM); MIC [9, 31]: ≤ 0.05 µg/mL; MIC [12, 32]: 0.39 µg/mL (≈ 1.02 µM); MIC [13, 33]: 1.56 µg/mL (≈ 4.09 µM); MIC [17, 34]: 0.1 µg/mL (≈ 0.262 µM)
C=CCN1CCN(c2c(F)cc3c(=O)c(C(=O)O)cn(CC)c3c2F)CC1 [Example 6, 7-(4-Allyl-1-piperazinyl)-1-ethyl-6,8-difluoro-1,4-dihydro-4-oxoquinoline-3-carboxylic acid] | 0.39 (≈ 1.03 µM) | 0.39 (≈ 1.03 µM) | – | – | 0.78 (≈ 2.07 µM) | – | 1.56 (≈ 4.13 µM) | – | – | 0.1 (≈ 0.265 µM) | 0.78 (≈ 2.07 µM) | – | – | 1.56 (≈ 4.13 µM) | 0.78 (≈ 2.07 µM) | 0.78 (≈ 2.07 µM) | 0.78 (≈ 2.07 µM) | 0.2 (≈ 0.53 µM) | 25 (≈ 66.2 µM) | 12.5 (≈ 33.1 µM) | MIC [3, 28]: 0.78 µg/mL (≈ 2.07 µM); MIC [4, 29]: 0.1 µg/mL (≈ 0.265 µM); MIC [8, 30]: 1.56 µg/mL (≈ 4.13 µM); MIC [9, 31]: ≤ 0.05 µg/mL; MIC [12, 32]: 0.78 µg/mL (≈ 2.07 µM); MIC [13, 33]: 3.13 µg/mL (≈ 8.29 µM); MIC [17, 34]: 0.2 µg/mL (≈ 0.53 µM)
Cl.Cn1cc(C(=O)O)c(=O)c2cc(F)c(N3CCNCC3)c(F)c21 [Example 1, 6,8-Difluoro-1,4-dihydro-1-methyl-4-oxo-7-(1-piperazinyl)quinoline-3-carboxylic acid hydrochloride] | 0.1 | 0.1 | ≤ 0.05 | ≤ 0.05 | 0.2 | 3.13 | 0.1 | 0.1 | ≤ 0.05 | 0.39 | 1.56 | 0.1 | 6.25 | 0.1 | 3.13 | 3.13 | 3.13 | ≤ 0.05 | 1.56 | – | –
